Converted amounts (≈) assume the structure as drawn.
How the values were obtained:
Tenebrio molitor L. = assay: Tenebrio test: topical application to pupae, inhibition of adult characters; type: in vivo; settings: topical in acetone to abdomen of 0.5 to 2 hours old pupae; 27°C, 70% RH; ecdysis 5 to 7 days later; perfect adult 0%, perfect second pupa 100%
Description: The biological tests are examplified by tests on Tenebrio molitor L., Galleria mellonella L. and Culex pipiens L. Tenebrio test: The material in question is applied topically to the abdomen of 0.5 to 2 hours old pupae of the said specimen, as a solution in acetone. The pupae are held at 27°C and 70% RH, ecdysis occuring 5 to 7 days later. The degree of inhibition of adult characters is refered to an arbitrary scale, a morphologically perfect adult given the character 0%, a perfect second pupa 100%.

Culex pipiens L. = assay: Culex test: mature larvae, loss of 50% of the test animals; type: in vivo; settings: concentration producing a loss of 50% of the test animals, read-out: Culex test IC-50 eclos.
Description: Culex test: The compounds were tested on mature larvae of Culex pipiens. (IC-50 eclos.) in ppm.

Row | Structure (SMILES) | Tenebrio test ID-50 morph. (Tenebrio molitor L.) | LC50 (Culex pipiens L.)
1 | CC(C)=CCCC(C)=CCON=Cc1ccccc1 [Compound 1, Benzaldoxime-0-geranyl ether] | 0,05 μg/pupa | < 1 µg/mL
2 | CC(=CCON=Cc1ccccc1)CCC1OC1(C)C (stereo not drawn) [Compound 2, Benzaldoxime-O-epoxygeranyl ether] | > 0,1 μg/pupa | 
3 | CCC(C)=CCCC(=CCON=Cc1ccccc1)CC [Compound 4, Benzaldoxime-O-(3-ethyl-7-methyl-2,6-nonadiene-1-yl)-ether] | 0,01 μg/pupa | 
4 | CC(C)=CCCC(C)=CCON=Cc1ccc2c(c1)OCO2 [Compound 5, Piperonaloxime-O-geranyl ether] | > 100 μg/pupa | 1 µg/mL (≈ 3.32 µM)
5 | CC(C)=CCCC(C)=CCON=Cc1ccc(C)cc1 [Compound 6, p-Tolualdoxime-O-geranyl ether] | 50 μg/pupa | 10 µg/mL (≈ 36.8 µM)
6 | CC(C)=CCCC(C)=CCON=Cc1cccnc1 [Compound 7, 3-Pyridinealdoxime-O-geranyl ether] | 10 μg/pupa | 
7 | CC(C)=CCCC(C)CCON=Cc1ccccc1 (stereo not drawn) [Compound 8, Benzaldoxime-O-citronellyl ether] | > 100 μg/pupa | < 10 µg/mL
8 | CCC(C)=CCON=Cc1ccc2c(c1)OCO2 [Compound 9, Piperonaloxime-O-(3-methyl-2-pentene-1-yl)-ether] | 10 μg/pupa | 0.02 µg/mL (≈ 0.0809 µM)
9 | CCC(C)=CCON=Cc1ccccc1 [Compound 10, Benzaldoxime-O-(3-methyl-2-pentene-1-yl)-ether] | > 100 μg/pupa | 1 µg/mL (≈ 4.92 µM)
10 | CCC(C)=CCCON=Cc1ccc2c(c1)OCO2 [Compound 11, Piperonaloxime-O-(4-methyl-3-hexene-1-yl)-ether] | > 100 μg/pupa | 0.5 µg/mL (≈ 1.91 µM)
11 | CCC(C)=CCCON=Cc1ccccc1 [Compound 12, Benzaldoxime-O-(4-methyl-3-hexene-1-yl)-ether] | > 100 μg/pupa | < 10 µg/mL
12 | CC(C)=CCCC(C)=CCON=CCO [Compound 13, Glycollicaldoxime-O-geranyl ether] | 50 μg/pupa | 10 µg/mL (≈ 47.3 µM)
13 | CCOC(=O)C=NOCC=C(C)CCC=C(C)C [Compound 14, Glyoxylic acid ethylester aldoxime-O-geranyl ether] | 1 μg/pupa | 1 µg/mL (≈ 3.95 µM)
14 | CCOC(=O)C=NOCC=C(C)CCC1OC1(C)C (stereo not drawn) [Compound 15, Glyoxylic acid ethylester aldoxime-O-(epoxygeranyl)-ether] | 1 μg/pupa | 1 µg/mL (≈ 3.71 µM)
15 | CCOC(=O)C=NOCC=C(C)CCCC(C)(C)OCC [Compound 16, Glyoxylic acid ethylester aldoxime-O-(7-ethoxy-geranyl)-ether] | 1 μg/pupa | 1 µg/mL (≈ 3.34 µM)

Reference: US3941777A, “Compounds having juvenile hormone activity” (A/S Cheminova, priority 1973, dated 1976)
